Source: US7622269B2, “Methods of screening tyramine- and octopamine-expressing cells for compounds and compositions having potential insect control activity” (Tyratech, Inc., priority 2004, dated 2009)

Test system: octopamine synthesis mutant (iav) Drosophila melanogaster strain
Format: in vivo
Settings: for toxicity in iav strain compared with wild type: in vivo; for % Mortality at LD50 of wild/type Drosophila melanogaster strain, iav: topical, 24 hour

Compound | toxicity in iav strain compared with wild type | % Mortality at LD50 of wild/type Drosophila melanogaster strain, iav [%]
CCC(=O)OCCc1ccccc1 [2-phenylethyl propionate] | remarkably increased | 80.0
OCC=Cc1ccccc1 [cinnamic alcohol, 3-phenyl-2-propen-1-ol] | remarkably increased | 80.0
C=CCc1ccc(O)c(OC)c1 [eugenol, 2-methoxy-4-(2-propenyl)phenol] | remarkably increased | 80.0
CC(C)=CCCC(C)=CCO [geraniol, 3,7-dimethyl-2,6-octadien-1-ol] | does not affect the toxicity | 60.0
COC(=O)c1ccccc1O [methyl salicylate, 2-hydroxybenzoic acid methyl ester] | does not affect the toxicity | 46.6
Cc1ccc(C(C)C)cc1 [p-cymene, methyl(1-methylethyl)benzene] | does not affect the toxicity | 40.0
